From paper PMC7155171, “Probing the Open Global Health Chemical Diversity Library for Multistage-Active Starting Points for Next-Generation Antimalarials” (ACS Infectious Diseases, 2020)
Like-named read-outs stand apart in the source and are kept apart here.

How the values were obtained:
[1] = tested on: P. falciparum Dd2 (PfLuc) line expressing firefly luciferase, asexual blood stage; test: microbe, parasite or virus in culture; format: cell-based, Plasmodium falciparum; conditions: Plasmodium falciparum
[2] = tested on: P. falciparum Dd2; test: SYBR green I asexual blood stage proliferation assay (96 h); format: cell-based, Plasmodium falciparum; conditions: Plasmodium falciparum, DD2, 11-pt dose response, 96hr
[3] = DD2, read-out: CDD P. falciparum Luciferase ABS 11-pt Reconfirmation Dose Response (48hr): IC50 (μM), 11-pt dose response, 48hr
[4] = DD2, 8-pt dose response, 96hr, read-out: CDD P. falciparum Luciferase ABS 8-pt Reconfirmation Dose Response (96hr): IC50
[5] = DD2, 8-pt dose response, 96hr, read-out: CDD P. falciparum Luciferase ABS 8-pt Reconfirmation Dose Response (96hr): Maximum inhibition (%)
[6] = DD2, 11-pt dose response, 48hr, read-out: CDD P. falciparum Luciferase ABS 11-pt Reconfirmation Dose Response (48hr): Maximum inhibition (%)
[7] = DD2, 11-pt dose response, 96hr, read-out: CDD P. falciparum Luciferase ABS 11-pt Reconfirmation Dose Response (96hr): IC50
[8] = DD2, 11-pt dose response, 96hr, read-out: CDD P. falciparum Luciferase ABS 11-pt Reconfirmation Dose Response (96hr): Maximum inhibition (%)
[9] = Sybr Green I, read-out: CDD P. falciparum Sybr Green I ABS 11-pt Reconfirmation Dose Response (96hr): IC50
[10] = Sybr Green I, read-out: CDD P. falciparum Sybr Green I ABS 11-pt Reconfirmation Dose Response (96hr): Maximum inhibition (%)
[11] = DD2, read-out: P. falciparum Luciferase ABS 11-pt Reconfirmation Dose Response (48hr): IC50, 11-pt dose response, 48hr
[12] = DD2, 8-pt dose response, 96hr, read-out: P. falciparum Luciferase ABS 8-pt Reconfirmation Dose Response (96hr): IC50
[13] = DD2, 8-pt dose response, 96hr, read-out: P. falciparum Luciferase ABS 8-pt Reconfirmation Dose Response (96hr): Maximum inhibition (%)
[14] = DD2, 11-pt dose response, 48hr, read-out: P. falciparum Luciferase ABS 11-pt Reconfirmation Dose Response (48hr): Maximum inhibition (%)
[15] = DD2, 11-pt dose response, 96hr, read-out: P. falciparum Luciferase ABS 11-pt Reconfirmation Dose Response (96hr): IC50
[16] = DD2, 11-pt dose response, 96hr, read-out: P. falciparum Luciferase ABS 11-pt Reconfirmation Dose Response (96hr): Maximum inhibition (%)
[17] = read-out: P. falciparum Sybr Green I ABS 11-pt Reconfirmation Dose Response (96hr): IC50
[18] = read-out: P. falciparum Sybr Green I ABS 11-pt Reconfirmation Dose Response (96hr): Maximum inhibition (%)
[19] = 96 h incubation, Dd2 luciferase, read-out: 96 hour Pfluc IC50

Structure (SMILES)	IC50 [1, 3]	IC50 [1, 4]	Emax [1, 5]	Emax [1, 6]	IC50 [1, 7]	Emax [1, 8]	IC50 [2, 9]	Emax [2, 10]	IC50 [1, 11]	IC50 [1, 12]	Emax [1, 13]	Emax [1, 14]	IC50 [1, 15]	Emax [1, 16]	IC50 [2, 17]	Emax [2, 18]	IC50 [1, 19]
CCN(CC)CCNS(=O)(=O)c1cccc(CSC)c1 [DDD01038216]	10.2 µM	0.58 µM	87.3%	58.8%	2.99 µM	89.5%	7550 nM	73.7%	–	–	–	–	–	–	–	–	–
Cc1cc(-n2cccn2)ccc1CN1CCOCC(CN(C)C)C1 (stereo not shown) [DDD01247138]	> 12.5 µM	0.9 µM	83%	48%	5.64 µM	81.9%	> 4160 nM	60.8%	–	–	–	–	–	–	–	–	–
Cc1cc(C)c(N(CC(O)CNCc2ccccc2)S(C)(=O)=O)c(C)c1 (stereo not shown) [DDD01027603]	2.17 µM	0.51 µM	90.1%	75%	0.829 µM	90.9%	4910 nM	81.7%	–	–	–	–	–	–	–	–	–
Clc1ccc(C2(CNC3=NCCN3)CC2)cc1 [DDD01067441]	1.96 µM	0.55 µM	95.1%	96.7%	0.613 µM	99.9%	760 nM	101%	–	–	–	–	–	–	–	–	–
c1ccc(Sc2ccc3c(c2)OCO3)c(CNC2=NCCN2)c1 [DDD01035544]	7.86 µM	1.05 µM	85.5%	75%	1.67 µM	95.1%	> 4160 nM	65.9%	–	–	–	–	–	–	–	–	–
OCCN1CCC(CNCc2ccccc2OC(F)(F)F)CC1 [DDD01297525]	–	–	–	–	–	–	–	–	> 12.5 µM	1.51 µM	88.7%	54.6%	5.42 µM	88.7%	7440 nM	77.9%	–
CC(C)c1nccc(C2(c3ccccc3Cl)CCNCC2)n1 [DDD01250092]	3.82 µM	1.08 µM	86.6%	58.4%	1.95 µM	90.3%	5400 nM	74.3%	–	–	–	–	–	–	–	–	–
Clc1ccccc1C1(c2ccnc(-c3ccncc3)n2)CCNCC1 [DDD01257938]	4.26 µM	0.31 µM	93.5%	98.2%	0.482 µM	99.5%	2220 nM	98.9%	–	–	–	–	–	–	–	–	–
CC(C)N(C)Cc1cnc2n1CCN(C(=O)NC1CCCC1)C2 [DDD01085014]	> 12.5 µM	0.4 µM	87.1%	50.3%	0.478 µM	91%	3090 nM	52.8%	–	–	–	–	–	–	–	–	–
Fc1ccccc1Cn1c(C2CCNCC2)cc2cccnc21 [DDD01057236]	3.02 µM	0.41 µM	92.4%	64.7%	1.41 µM	–	7030 nM	70.6%	–	–	–	–	–	–	–	–	–
Nc1cc(-c2c[nH]nc2C2CCCN2CCCc2ccccc2)ccn1 (stereo not shown) [DDD01057437]	3.06 µM	0.59 µM	96.2%	63%	0.669 µM	100%	2260 nM	96.1%	–	–	–	–	–	–	–	–	–
COCCCN1CCCN(C(C)C(=O)Nc2cccc(I)c2)CC1 (stereo not shown) [DDD01080015]	2.64 µM	0.87 µM	92%	71.5%	1.94 µM	94.8%	10600 nM	77.7%	–	–	–	–	–	–	–	–	–
Cc1n[nH]cc1CNC1(c2ccc(F)cc2)CCCC1 [DDD01077733]	> 12.5 µM	0.59 µM	86.6%	59%	2.1 µM	87%	> 1390 nM	59%	–	–	–	–	–	–	–	–	–
Cc1cccc(CN2CCC(Cc3ccccc3F)CC2)n1 [DDD01246731]	–	–	–	–	–	–	–	–	2.01 µM	1.12 µM	–	–	0.529 µM	100%	5160 nM	92.8%	–
CN1CCC(N(C)c2ccccc2CNCc2ccco2)CC1 [DDD01074928]	1.71 µM	0.27 µM	92.9%	80.4%	0.211 µM	97.1%	1100 nM	94.3%	–	–	–	–	–	–	–	–	0.21 µM
N[C@@H]1CCC[C@@H](Oc2ccc(F)cc2Oc2ccccc2)[C@@H]1O [DDD01059731]	> 1.4 µM	0.69 µM	93.5%	89.8%	> 1.39 µM	98.4%	4960 nM	86.9%	–	–	–	–	–	–	–	–	–
CCCn1ccnc1CN1CCCC1c1ccccn1 (stereo not shown) [DDD01250556]	4.66 µM	0.46 µM	–	53.8%	1.47 µM	94.8%	11900 nM	68.5%	–	–	–	–	–	–	–	–	–
Cc1cccnc1[C@H](C)Nc1nc(-c2cccnc2)nc2c1CNC2 [DDD01248607]	–	–	–	–	–	–	–	–	1.59 µM	1.6 µM	92.2%	79.2%	1.37 µM	99.4%	3910 nM	91.2%	–
CN1CCC(N(Cc2ccco2)S(=O)(=O)c2ccc(Br)cc2Cl)CC1 [DDD01063208]	> 12.5 µM	0.58 µM	76.6%	21.3%	2.19 µM	81.7%	10600 nM	54.5%	–	–	–	–	–	–	–	–	–
c1cncc(N2CCCC3(CCN(CCN4CCCC4)CC3)C2)c1 [DDD01032557]	–	–	–	–	–	–	–	–	7.21 µM	1.19 µM	–	83.2%	1.41 µM	99.7%	2440 nM	93.7%	–
Cc1cn2c(n1)C(CNCc1ccc(C)s1)CCC2 (stereo not shown) [DDD01079169]	1.64 µM	0.63 µM	93.4%	93.3%	0.471 µM	100%	2250 nM	83.8%	–	–	–	–	–	–	–	–	–
Brc1cccc(C2(CNCc3cc[nH]c3)CCOCC2)c1 [DDD01076928]	1.56 µM	0.82 µM	85.7%	86.3%	0.694 µM	99.3%	5620 nM	–	–	–	–	–	–	–	–	–	–
COc1cc(C(=O)NCC2(N(C)C)CCN(C)CC2)c2ccccc2n1 [DDD01057375]	–	–	–	–	–	–	–	–	> 12.5 µM	< 0.00232 µM	88.6%	53%	–	87.3%	> 1390 nM	63.6%	0.00714 µM
COc1ccc(N2CCCC3(C2)CN(c2nncs2)CCO3)cc1 (stereo not shown) [DDD01034473]	0.758 µM	0.2 µM	95%	–	0.451 µM	97.9%	830 nM	95.3%	–	–	–	–	–	–	–	–	–
CN[C@@H](C)C(=O)N(Cc1cccc(C)c1)Cc1ccccc1OC [DDD01246872]	1.7 µM	0.47 µM	85.5%	61.6%	0.75 µM	89.6%	1070 nM	62.7%	–	–	–	–	–	–	–	–	–
CC(C)CNC(=O)C1(Cc2ccccc2-c2cccs2)CCNC1 (stereo not shown) [DDD01059689]	> 12.5 µM	0.92 µM	73.8%	49.4%	> 1.39 µM	87.3%	> 12500 nM	45.7%	–	–	–	–	–	–	–	–	–
CCCOc1ccc2ccccc2c1CN1CC[C@@]2(O)CCNC[C@H]2C1 [DDD01246029]	2.85 µM	1 µM	–	96.3%	1.42 µM	98.8%	2760 nM	96.5%	–	–	–	–	–	–	–	–	–
Cc1cnn(CCNCc2nccn2Cc2ccccc2)c1 [DDD01062085]	10.4 µM	0.53 µM	–	75%	1.22 µM	95.2%	> 12500 nM	51.3%	–	–	–	–	–	–	–	–	–
OC(CNCc1ccccc1C(F)(F)F)c1ccccc1 (stereo not shown) [DDD01254021]	4.82 µM	0.87 µM	91.4%	84.3%	1.76 µM	97.4%	3660 nM	87.9%	–	–	–	–	–	–	–	–	–
c1ccc(N2CCCC3(CCN(Cc4ccsc4)C3)C2)nc1 (stereo not shown) [DDD01029521]	3.75 µM	1.02 µM	83.9%	64.3%	2.51 µM	86.9%	1880 nM	66.8%	–	–	–	–	–	–	–	–	–
